Active and inactive are the calls of the source. The calls are words filed in the database; no cut-off is given here.
Experiments:
[1] = target: Sigma non-opioid intracellular receptor 1 (Homo sapiens, UniProt Q99720); assay: Displacement of [3H](+)-pentazocine from human sigma 1 receptor transfected in human HEK293T cells assessed as inhibition constant by radioligand competition binding assay; type: cell-based
[2] = target: D(1B) dopamine receptor (Homo sapiens, UniProt P21918); assay: Binding affinity to dopamine D5 receptor (unknown origin) assessed as inhibition constant
Sequence of D(1B) dopamine receptor (P21918 whole entry): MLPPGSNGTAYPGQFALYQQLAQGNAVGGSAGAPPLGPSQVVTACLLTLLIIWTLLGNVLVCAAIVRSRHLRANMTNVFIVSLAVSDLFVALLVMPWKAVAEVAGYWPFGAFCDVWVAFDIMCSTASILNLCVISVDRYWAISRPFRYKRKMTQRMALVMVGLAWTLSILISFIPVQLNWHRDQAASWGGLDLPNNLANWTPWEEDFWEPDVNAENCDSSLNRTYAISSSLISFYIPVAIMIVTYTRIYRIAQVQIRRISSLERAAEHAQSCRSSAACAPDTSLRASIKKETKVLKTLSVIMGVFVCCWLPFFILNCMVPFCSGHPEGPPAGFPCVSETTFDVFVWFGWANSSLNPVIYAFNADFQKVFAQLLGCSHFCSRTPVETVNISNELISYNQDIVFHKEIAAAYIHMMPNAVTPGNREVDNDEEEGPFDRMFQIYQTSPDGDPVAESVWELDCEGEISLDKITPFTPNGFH

[3] = target: 5-hydroxytryptamine receptor 2B (Homo sapiens, UniProt P41595); assay: Binding affinity to 5-HT2B receptor (unknown origin) assessed as inhibition constant
Sequence of 5-hydroxytryptamine receptor 2B (P41595 whole entry): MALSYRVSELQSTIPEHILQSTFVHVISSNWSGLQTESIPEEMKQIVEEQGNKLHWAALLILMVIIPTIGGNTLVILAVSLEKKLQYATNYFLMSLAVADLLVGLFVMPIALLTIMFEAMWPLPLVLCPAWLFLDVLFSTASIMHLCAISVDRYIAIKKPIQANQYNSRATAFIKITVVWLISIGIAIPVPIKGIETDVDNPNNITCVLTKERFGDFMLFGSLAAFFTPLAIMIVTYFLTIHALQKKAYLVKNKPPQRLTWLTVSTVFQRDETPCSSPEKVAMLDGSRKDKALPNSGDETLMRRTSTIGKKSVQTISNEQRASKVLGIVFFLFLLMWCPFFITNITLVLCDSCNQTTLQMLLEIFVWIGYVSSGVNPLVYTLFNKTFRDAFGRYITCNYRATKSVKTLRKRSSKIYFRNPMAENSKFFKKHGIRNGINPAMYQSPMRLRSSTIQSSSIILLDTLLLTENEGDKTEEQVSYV

[4] = target: Alpha-2A adrenergic receptor (Homo sapiens, UniProt P08913); assay: Binding affinity to alpha2A receptor (unknown origin) assessed as inhibition constant
Sequence of Alpha-2A adrenergic receptor (P08913 whole entry): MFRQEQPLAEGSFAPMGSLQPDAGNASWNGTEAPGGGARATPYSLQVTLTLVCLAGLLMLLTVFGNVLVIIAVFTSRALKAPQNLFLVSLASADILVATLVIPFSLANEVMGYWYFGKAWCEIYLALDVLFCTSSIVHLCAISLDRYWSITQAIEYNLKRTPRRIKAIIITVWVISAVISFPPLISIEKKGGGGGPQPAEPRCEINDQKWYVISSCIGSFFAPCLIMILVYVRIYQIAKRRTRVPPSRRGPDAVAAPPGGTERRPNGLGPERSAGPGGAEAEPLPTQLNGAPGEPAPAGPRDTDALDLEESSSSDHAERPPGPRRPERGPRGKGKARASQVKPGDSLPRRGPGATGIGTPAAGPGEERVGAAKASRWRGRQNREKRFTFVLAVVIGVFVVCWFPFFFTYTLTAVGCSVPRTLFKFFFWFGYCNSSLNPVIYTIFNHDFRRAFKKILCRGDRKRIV

[5] = Metabolic stability in human liver microsomes assessed as half life at 10 uM measured upto 60 mins in presence of NADPH by LC-MS/MS analysis; type: ADME, Microsome; conditions: liver microsomes
[6] = Cytotoxicity against HPDE cells measured after 72 hrs by MTT assay; type: toxicity, cell-based; conditions: human
[7] = test system: MIA PaCa-2; assay: Induction of apoptosis in human MIA PaCa-2 cells assessed as viable cells at […] measured after 48 hrs by Annexin V-Alexa Fluor 488/propidium iodide staining based flow cytometry (reference value: 82.23%); type: functional; conditions: dose 2.5 µM, read-out: Activity
[8] = test system: MIA PaCa-2; assay: Induction of apoptosis in human MIA PaCa-2 cells assessed as viable cells at 5.0 uM measured after 48 hrs by Annexin V-Alexa Fluor 488/propidium iodide staining based flow cytometry (reference value: 82.23%); type: functional; conditions: read-out: Activity
[9] = test system: MIA PaCa-2; assay: Induction of apoptosis in human MIA PaCa-2 cells assessed as early apoptotic cells at 1.0 uM measured after 48 hrs by Annexin V-Alexa Fluor 488/propidium iodide staining based flow cytometry (reference value: 4.11%); type: functional
[10] = test system: MIA PaCa-2; assay: Induction of apoptosis in human MIA PaCa-2 cells assessed as necrotic cells at […] measured after 48 hrs by Annexin V-Alexa Fluor 488/propidium iodide staining based flow cytometry (reference value: 7.03%); type: functional; conditions: dose 2.5 µM
[11] = test system: HCT-116; assay: Induction of apoptosis in human HCT-116 cells assessed as viable cells at 5.0 uM measured after 48 hrs by Annexin V-Alexa Fluor 488/propidium iodide staining based flow cytometry (reference value: 79.69%); type: functional; conditions: read-out: Activity
[12] = test system: HCT-116; assay: Induction of apoptosis in human HCT-116 cells assessed as viable cells at 10.0 uM measured after 48 hrs by Annexin V-Alexa Fluor 488/propidium iodide staining based flow cytometry (reference value: 79.69%); type: functional; conditions: read-out: Activity
[13] = test system: HCT-116; assay: Induction of apoptosis in human HCT-116 cells assessed as late apoptotic cells at […] measured after 48 hrs by Annexin V-Alexa Fluor 488/propidium iodide staining based flow cytometry (reference value: 8.48%); type: functional; conditions: dose 2.5 µM
[14] = test system: HCT-116; assay: Induction of apoptosis in human HCT-116 cells assessed as late apoptotic cells at 10.0 uM measured after 48 hrs by Annexin V-Alexa Fluor 488/propidium iodide staining based flow cytometry (reference value: 8.48%); type: functional
[15] = test system: HCT-116; assay: Induction of apoptosis in human HCT-116 cells assessed as necrotic cells at 5.0 uM measured after 48 hrs by Annexin V-Alexa Fluor 488/propidium iodide staining based flow cytometry (reference value: 9.06%); type: functional
[16] = test system: MIA PaCa-2; assay: Induction of cell cycle arrest in human MIA PaCa-2 cells assessed as accumulation of cells in G0/G1 phase at 1 uM measured after 24 hrs by propidium iodide staining-based flow cytometric analysis (reference value: 53%); type: functional
[17] = test system: MIA PaCa-2; assay: Induction of cell cycle arrest in human MIA PaCa-2 cells assessed as accumulation of cells in G0/G1 phase at […] measured after 24 hrs by propidium iodide staining-based flow cytometric analysis (reference value: 53%); type: functional; conditions: dose 2.5 µM
[18] = test system: MIA PaCa-2; assay: Induction of cell cycle arrest in human MIA PaCa-2 cells assessed as accumulation of cells in S phase at 1 uM measured after 24 hrs by propidium iodide staining-based flow cytometric analysis (reference value: 31%); type: functional
[19] = test system: MIA PaCa-2; assay: Induction of cell cycle arrest in human MIA PaCa-2 cells assessed as accumulation of cells in S phase at […] measured after 24 hrs by propidium iodide staining-based flow cytometric analysis (reference value: 31%); type: functional; conditions: dose 2.5 µM
[20] = test system: MIA PaCa-2; assay: Induction of cell cycle arrest in human MIA PaCa-2 cells assessed as accumulation of cells in S phase at 10 uM measured after 24 hrs by propidium iodide staining-based flow cytometric analysis (reference value: 31%); type: functional
[21] = test system: HCT-116; assay: Induction of cell cycle arrest in human HCT-116 cells assessed as accumulation of cells in G0/G1 phase at 1 uM measured after 24 hrs by propidium iodide staining-based flow cytometric analysis (reference value: 43%); type: functional
[22] = test system: HCT-116; assay: Induction of cell cycle arrest in human HCT-116 cells assessed as accumulation of cells in G0/G1 phase at […] measured after 24 hrs by propidium iodide staining-based flow cytometric analysis (reference value: 43%); type: functional; conditions: dose 2.5 µM
[23] = test system: HCT-116; assay: Induction of cell cycle arrest in human HCT-116 cells assessed as accumulation of cells in S phase at 1 uM measured after 24 hrs by propidium iodide staining-based flow cytometric analysis (reference value: 47%); type: functional
[24] = test system: HCT-116; assay: Induction of cell cycle arrest in human HCT-116 cells assessed as accumulation of cells in S phase at 10 uM measured after 24 hrs by propidium iodide staining-based flow cytometric analysis (reference value: 47%); type: functional
[25] = Cmax in CD-1 mouse plasma at 20 mg/kg, po; type: ADME, organism-based; set-up: dose 20 mg/kg, route po
[26] = Volume of distribution at steady state in CD-1 mouse plasma at 10 mg/kg, iv; type: ADME, organism-based; conditions: read-out: Vdss
[27] = Toxicity in C57BL/6 mouse assessed as effect on body weight at 30 mg/kg, po measured upto 32 days in presence of copper sulfate; type: organism-based; conditions: in vivo, 768 h, time < 32 day
[28] = test system: MIA PaCa-2; assay: Synergistic cytotoxicity against human MIA PaCa-2 cells at upto 1 uM measured after 7 days in presence of ammonium tetrathiomolybdate by crystal violet staining based analysis; type: functional, cell-based; conditions: time 7.0 day
[29] = test system: HCT-116; assay: Antagonistic cytotoxicity against human HCT-116 cells at upto 1 uM measured after 6 days in presence of elesclomol by crystal violet staining based analysis; type: functional, cell-based; conditions: time 6.0 day
[30] = test system: HCT-116; assay: Inhibition of colony formation in human HCT-116 cells at 0.04 to 30 uM pretreated with ammonium tetrathiomolybdate for 4 hrs followed by compound addition and measured after 6 days; type: functional, cell-based; conditions: dose 0.04-30 µM, time 6.0 day
[31] = test system: MIA PaCa-2; assay: Additive ferroptosis activity in human MIA-PaCa-2 cells at upto 1 uM measured after 7 days in presence of ferrostatin-1 by crystal violet staining based analysis; type: functional, cell-based; conditions: time 7.0 day
[32] = test system: MIA PaCa-2; assay: Additive ferroptosis activity in human MIA-PaCa-2 cells at upto 1 uM measured after 7 days in presence of deferoxamine by crystal violet staining based analysis; type: functional, cell-based; conditions: time 7.0 day
[33] = test system: MIA PaCa-2; assay: Synergistic cytotoxicity in human MIA PaCa-2 cells at upto 1 uM measured after 7 days in presence of paclitaxel by crystal violet staining based analysis; type: functional, cell-based; conditions: time 7.0 day
[34] = test system: MIA PaCa-2; assay: Synergistic cytotoxicity in human MIA PaCa-2 cells at upto 1 uM measured after 7 days in presence of oxaliplatin by crystal violet staining based analysis; type: functional, cell-based; conditions: time 7.0 day
[35] = test system: MIA PaCa-2; assay: Synergistic cytotoxicity in human MIA PaCa-2 cells at upto 1 uM measured after 7 days in presence of SC144 by crystal violet staining based analysis; type: functional, cell-based; conditions: time 7.0 day

Sequence of Sigma non-opioid intracellular receptor 1 (Q99720 whole entry): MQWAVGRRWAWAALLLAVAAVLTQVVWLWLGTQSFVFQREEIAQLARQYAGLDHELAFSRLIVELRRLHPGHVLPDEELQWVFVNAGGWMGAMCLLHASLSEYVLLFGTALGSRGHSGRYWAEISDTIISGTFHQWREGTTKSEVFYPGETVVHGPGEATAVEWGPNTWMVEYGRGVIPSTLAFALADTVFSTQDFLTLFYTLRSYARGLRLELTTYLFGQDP

Work on `CCN(CC)CCCC(C)Nc1cnc(C(=O)Nc2ccc(Cl)c3cccnc23)cn1` (stereo not given) yielded a Ki [1] of 530 nM, a Ki [2] of 1550 nM and a Ki [3] of 427 nM. It also gave a Ki [4] of 2740 nM, a half-life at 10 µM [5] of over 1 h and an IC50 at 72 h [6] of 300 nM. For the same compound, the viability at […] [7] was 54.5%, the viability at 5 µM [8] was 32.4% and the Activity [9] was 11.44%. It also gave an Activity [10] of 5.91%, a viability at 5 µM [11] of 64.1% and a viability at 10 µM [12] of 32.9%. It also gave an Activity [13] of 20.26%, an Activity [14] of 47.98% and an Activity [15] of 5.1%. The Activity [16] was 46%, the Activity [17] was 49% and the Activity [18] was 40%. The Activity [19] was 35%, the Activity [20] was 14% and the Activity [21] was 41%. For the same compound, the Activity [22] was 48%, the Activity [23] was 34% and the Activity [24] was 20%. For the same compound, the Cmax [25] was 254 ng/mL, the Vd [26] was 21.4 L/kg and the Activity [27] was “Non-Toxic”. The Activity [28] was “inactive”, the Activity [29] was “inactive” and the inhibition [30] was “inactive”. For the same compound, the Activity [31] was “Active”, the Activity [32] was “Active” and the Activity [33] was “inactive”. The Activity [34] was “inactive” and the Activity [35] was “inactive”.

Source: ChEMBL document CHEMBL5316327, “Design and Synthesis of Orally Active Quinolyl Pyrazinamides as Sigma 2 Receptor Ligands for the Treatment of Pancreatic Cancer” (J Med Chem, 2023)
